From patent publication US7994209B2, “3-phenoxymethylpyrrolidine compounds” (Theravance, Inc., priority 2009, dated 2011)

molecular target: T1, hSERT (Homo sapiens, UniProt P31645); test: hSERT neurotransmitter uptake assay (3H-5-HT), Assay 2; assay type: cell-based; parameters: expressed in transfected cells; host or cells: HEK-293; details: serotonin reuptake inhibition, 3H-5-HT uptake, HEK-293 hSERT cells (values without asterisk); read-out: SERT pIC50 (converted)
T1 sequence (P31645 whole entry): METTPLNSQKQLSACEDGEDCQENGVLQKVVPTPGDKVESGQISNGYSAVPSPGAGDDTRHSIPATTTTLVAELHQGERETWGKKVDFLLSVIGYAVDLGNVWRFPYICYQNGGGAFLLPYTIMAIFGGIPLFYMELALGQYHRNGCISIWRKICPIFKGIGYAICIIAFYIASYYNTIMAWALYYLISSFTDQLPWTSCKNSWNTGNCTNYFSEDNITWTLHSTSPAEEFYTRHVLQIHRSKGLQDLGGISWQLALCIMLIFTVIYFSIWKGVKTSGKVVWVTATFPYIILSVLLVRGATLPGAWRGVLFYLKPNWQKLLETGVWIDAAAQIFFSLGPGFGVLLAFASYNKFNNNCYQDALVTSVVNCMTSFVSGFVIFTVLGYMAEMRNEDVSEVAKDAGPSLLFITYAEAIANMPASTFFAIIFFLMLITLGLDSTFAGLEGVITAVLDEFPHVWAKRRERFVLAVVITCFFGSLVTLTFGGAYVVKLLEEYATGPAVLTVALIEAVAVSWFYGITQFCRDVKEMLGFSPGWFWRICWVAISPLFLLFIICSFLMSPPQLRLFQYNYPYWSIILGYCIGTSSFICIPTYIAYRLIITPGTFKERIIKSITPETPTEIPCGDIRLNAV

IC50 [nM] | SMILES
≤ 10 | CC(C)C[C@H](Oc1ccc(Cl)cc1F)[C@H]1CCNC1 [Example 10-41, (S)-3-[(S)-1-(4-Chloro-2-fluorophenoxy)-3-methylbutyl]pyrrolidine]
≤ 10 | CC(C)C[C@H](Oc1ccc(Cl)cc1Cl)[C@H]1CCNC1 [Example 10-42, (S)-3-[(S)-1-(2,4-Dichlorophenoxy)-3-methylbutyl]pyrrolidine]
≤ 10 | CC(C)C[C@@H](Oc1ccc(Cl)cc1Cl)[C@H]1CCNC1 [Example 10-44, (S)-3-[(R)-1-(2,4-Dichlorophenoxy)-3-methylbutyl]pyrrolidine]
≤ 10 | Cc1cc(Cl)ccc1O[C@H](CC(C)C)[C@H]1CCNC1 [Example 10-45, (S)-3-[(R)-1-(4-Chloro-2-methylphenoxy)-3-methylbutyl]pyrrolidine]
≤ 10 | Cc1cc(Cl)ccc1O[C@@H](CC(C)C)[C@H]1CCNC1 [Example 10-47, (S)-3-[(S)-1-(4-Chloro-2-methylphenoxy)-3-methylbutyl]pyrrolidine]
≤ 10 | CC(C)CC(Oc1ccc(Cl)cc1C(F)(F)F)C1CCNC1 (centres unmarked) [Example 10-48, 3-[1-(4-Chloro-2-trifluoromethylphenoxy)-3-methylbutyl]pyrrolidine]

More lines, now with the values behind:

SMILES | IC50 [nM]
CC(C)CC(Oc1cccc(C(F)(F)F)c1F)C1CCNC1 (centres unmarked) [Example 10-20, 3-[1-(2-Fluoro-3-trifluoromethylphenoxy)-3-methylbutyl]pyrrolidine] | ≤ 100
CC(C)CC(Oc1cccc(Cl)c1Cl)C1CCNC1 (centres unmarked) [Example 10-22, 3-[1-(2,3-Dichlorophenoxy)-3-methylbutyl]pyrrolidine] | ≤ 10
CC(C)C[C@@H](Oc1cccc(Cl)c1Cl)[C@H]1CCNC1 [Example 10-23, (S)-3-[(R)-1-(2,3-Dichlorophenoxy)-3-methylbutyl]pyrrolidine] | ≤ 10
CC(C)C[C@H](Oc1cccc(F)c1Cl)[C@H]1CCNC1 [Example 10-25, (S)-3-[(S)-1-(2-Chloro-3-fluorophenoxy)-3-methylbutyl]pyrrolidine] | ≤ 10
CC(C)C[C@@H](Oc1cccc(F)c1Cl)[C@H]1CCNC1 [Example 10-27, (S)-3-[(R)-1-(2-Chloro-3-fluorophenoxy)-3-methylbutyl]pyrrolidine] | ≤ 10
CC(C)CC(Oc1cccc(C(F)(F)F)c1Cl)C1CCNC1 (centres unmarked) [Example 10-29, 3-[1-(2-Chloro-3-trifluoromethylphenoxy)-3-methylbutyl]pyrrolidine] | ≤ 10
CC(C)C[C@H](Oc1cccc(C(F)(F)F)c1Cl)[C@H]1CCNC1 [Example 10-30, (S)-3-[(S)-1-(2-Chloro-3-trifluoromethylphenoxy)-3-methylbutyl]pyrrolidine] | ≤ 10
Cc1c(Cl)cccc1O[C@H](CC(C)C)[C@H]1CCNC1 [Example 10-31, (S)-3-[(R)-1-(3-Chloro-2-methylphenoxy)-3-methylbutyl]pyrrolidine] | ≤ 10
CC(C)CC(Oc1cccc(Cl)c1C(F)(F)F)C1CCNC1 (centres unmarked) [Example 10-35, 3-[1-(3-Chloro-2-trifluoromethylphenoxy)-3-methylbutyl]pyrrolidine] | ≤ 10
CC(C)C[C@H](Oc1cccc(Cl)c1C(F)(F)F)[C@H]1CCNC1 [Example 10-36, (S)-3-[(S)-1-(3-Chloro-2-trifluoromethylphenoxy)-3-methylbutyl]pyrrolidine] | ≤ 10
CC(C)CC(Oc1ccc(Cl)cc1F)C1CCNC1 (centres unmarked) [Example 10-39, 3-[1-(4-Chloro-2-fluorophenoxy)-3-methylbutyl]pyrrolidine] | ≤ 10

molecular target: T2, hNET (Homo sapiens, UniProt P23975); test: hNET neurotransmitter uptake assay (3H-NE), Assay 2; assay type: cell-based; parameters: expressed in transfected cells; host or cells: HEK-293; details: norepinephrine reuptake inhibition, 3H-NE uptake, HEK-293 hNET cells (values without asterisk); read-out: NET pIC50 (converted)
T2 sequence (P23975 whole entry): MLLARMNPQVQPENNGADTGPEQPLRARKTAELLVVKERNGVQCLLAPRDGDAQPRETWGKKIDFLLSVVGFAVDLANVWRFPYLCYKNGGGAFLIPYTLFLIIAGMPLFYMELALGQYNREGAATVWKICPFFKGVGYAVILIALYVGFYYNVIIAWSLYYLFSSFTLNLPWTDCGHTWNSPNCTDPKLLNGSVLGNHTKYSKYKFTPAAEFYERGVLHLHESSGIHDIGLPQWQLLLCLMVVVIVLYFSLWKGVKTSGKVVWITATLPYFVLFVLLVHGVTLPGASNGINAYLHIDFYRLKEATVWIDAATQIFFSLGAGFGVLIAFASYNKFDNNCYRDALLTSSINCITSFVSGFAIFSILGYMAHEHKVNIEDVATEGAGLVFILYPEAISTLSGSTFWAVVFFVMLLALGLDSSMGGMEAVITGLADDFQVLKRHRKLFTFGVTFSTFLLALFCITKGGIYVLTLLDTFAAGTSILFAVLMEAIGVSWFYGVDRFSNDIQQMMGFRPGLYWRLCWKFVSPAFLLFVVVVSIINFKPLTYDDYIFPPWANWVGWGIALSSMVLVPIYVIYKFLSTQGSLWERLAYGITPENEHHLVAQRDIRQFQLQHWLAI

IC50 [nM] | SMILES
≤ 10 | CC(C)C[C@H](Oc1ccc(Cl)cc1F)[C@H]1CCNC1 [Example 10-41, (S)-3-[(S)-1-(4-Chloro-2-fluorophenoxy)-3-methylbutyl]pyrrolidine]
≤ 10 | CC(C)C[C@H](Oc1ccc(Cl)cc1Cl)[C@H]1CCNC1 [Example 10-42, (S)-3-[(S)-1-(2,4-Dichlorophenoxy)-3-methylbutyl]pyrrolidine]
≤ 10 | CC(C)C[C@@H](Oc1ccc(Cl)cc1Cl)[C@H]1CCNC1 [Example 10-44, (S)-3-[(R)-1-(2,4-Dichlorophenoxy)-3-methylbutyl]pyrrolidine]
≤ 10 | Cc1cc(Cl)ccc1O[C@H](CC(C)C)[C@H]1CCNC1 [Example 10-45, (S)-3-[(R)-1-(4-Chloro-2-methylphenoxy)-3-methylbutyl]pyrrolidine]
≤ 10 | Cc1cc(Cl)ccc1O[C@@H](CC(C)C)[C@H]1CCNC1 [Example 10-47, (S)-3-[(S)-1-(4-Chloro-2-methylphenoxy)-3-methylbutyl]pyrrolidine]
≤ 10 | CC(C)CC(Oc1ccc(Cl)cc1C(F)(F)F)C1CCNC1 (centres unmarked) [Example 10-48, 3-[1-(4-Chloro-2-trifluoromethylphenoxy)-3-methylbutyl]pyrrolidine]

Further lines, the molecule ahead of its results:

SMILES | IC50 [nM]
CC(C)CC(Oc1cccc(C(F)(F)F)c1F)C1CCNC1 (centres unmarked) [Example 10-20, 3-[1-(2-Fluoro-3-trifluoromethylphenoxy)-3-methylbutyl]pyrrolidine] | ≤ 100
CC(C)CC(Oc1cccc(Cl)c1Cl)C1CCNC1 (centres unmarked) [Example 10-22, 3-[1-(2,3-Dichlorophenoxy)-3-methylbutyl]pyrrolidine] | ≤ 10
CC(C)C[C@@H](Oc1cccc(Cl)c1Cl)[C@H]1CCNC1 [Example 10-23, (S)-3-[(R)-1-(2,3-Dichlorophenoxy)-3-methylbutyl]pyrrolidine] | ≤ 10
CC(C)C[C@H](Oc1cccc(F)c1Cl)[C@H]1CCNC1 [Example 10-25, (S)-3-[(S)-1-(2-Chloro-3-fluorophenoxy)-3-methylbutyl]pyrrolidine] | ≤ 10
CC(C)C[C@@H](Oc1cccc(F)c1Cl)[C@H]1CCNC1 [Example 10-27, (S)-3-[(R)-1-(2-Chloro-3-fluorophenoxy)-3-methylbutyl]pyrrolidine] | ≤ 10
CC(C)CC(Oc1cccc(C(F)(F)F)c1Cl)C1CCNC1 (centres unmarked) [Example 10-29, 3-[1-(2-Chloro-3-trifluoromethylphenoxy)-3-methylbutyl]pyrrolidine] | ≤ 10
CC(C)C[C@H](Oc1cccc(C(F)(F)F)c1Cl)[C@H]1CCNC1 [Example 10-30, (S)-3-[(S)-1-(2-Chloro-3-trifluoromethylphenoxy)-3-methylbutyl]pyrrolidine] | ≤ 10
Cc1c(Cl)cccc1O[C@H](CC(C)C)[C@H]1CCNC1 [Example 10-31, (S)-3-[(R)-1-(3-Chloro-2-methylphenoxy)-3-methylbutyl]pyrrolidine] | ≤ 10
CC(C)CC(Oc1cccc(Cl)c1C(F)(F)F)C1CCNC1 (centres unmarked) [Example 10-35, 3-[1-(3-Chloro-2-trifluoromethylphenoxy)-3-methylbutyl]pyrrolidine] | ≤ 10
CC(C)C[C@H](Oc1cccc(Cl)c1C(F)(F)F)[C@H]1CCNC1 [Example 10-36, (S)-3-[(S)-1-(3-Chloro-2-trifluoromethylphenoxy)-3-methylbutyl]pyrrolidine] | ≤ 10
CC(C)CC(Oc1ccc(Cl)cc1F)C1CCNC1 (centres unmarked) [Example 10-39, 3-[1-(4-Chloro-2-fluorophenoxy)-3-methylbutyl]pyrrolidine] | ≤ 10

molecular target: T2, hNET; test: hNET membrane radioligand binding assay (3H-nisoxetine), Assay 1; details: not given

Ki [nM] | SMILES
≤ 10 | CC(C)C[C@H](Oc1ccc(Cl)cc1F)[C@H]1CCNC1 [Example 10-41, (S)-3-[(S)-1-(4-Chloro-2-fluorophenoxy)-3-methylbutyl]pyrrolidine]
≤ 10 | CC(C)C[C@H](Oc1ccc(Cl)cc1Cl)[C@H]1CCNC1 [Example 10-42, (S)-3-[(S)-1-(2,4-Dichlorophenoxy)-3-methylbutyl]pyrrolidine]
≤ 100 | CC(C)C[C@@H](Oc1ccc(Cl)cc1Cl)[C@H]1CCNC1 [Example 10-44, (S)-3-[(R)-1-(2,4-Dichlorophenoxy)-3-methylbutyl]pyrrolidine]
≤ 10 | Cc1cc(Cl)ccc1O[C@H](CC(C)C)[C@H]1CCNC1 [Example 10-45, (S)-3-[(R)-1-(4-Chloro-2-methylphenoxy)-3-methylbutyl]pyrrolidine]
≤ 10 | Cc1cc(Cl)ccc1O[C@@H](CC(C)C)[C@H]1CCNC1 [Example 10-47, (S)-3-[(S)-1-(4-Chloro-2-methylphenoxy)-3-methylbutyl]pyrrolidine]
≤ 10 | CC(C)CC(Oc1ccc(Cl)cc1C(F)(F)F)C1CCNC1 (centres unmarked) [Example 10-48, 3-[1-(4-Chloro-2-trifluoromethylphenoxy)-3-methylbutyl]pyrrolidine]

The next lines start with the molecule.

SMILES | Ki [nM]
CC(C)CC(Oc1cccc(C(F)(F)F)c1F)C1CCNC1 (centres unmarked) [Example 10-20, 3-[1-(2-Fluoro-3-trifluoromethylphenoxy)-3-methylbutyl]pyrrolidine] | ≤ 10
CC(C)CC(Oc1cccc(Cl)c1Cl)C1CCNC1 (centres unmarked) [Example 10-22, 3-[1-(2,3-Dichlorophenoxy)-3-methylbutyl]pyrrolidine] | ≤ 10
CC(C)C[C@@H](Oc1cccc(Cl)c1Cl)[C@H]1CCNC1 [Example 10-23, (S)-3-[(R)-1-(2,3-Dichlorophenoxy)-3-methylbutyl]pyrrolidine] | ≤ 10
CC(C)C[C@H](Oc1cccc(F)c1Cl)[C@H]1CCNC1 [Example 10-25, (S)-3-[(S)-1-(2-Chloro-3-fluorophenoxy)-3-methylbutyl]pyrrolidine] | ≤ 10
CC(C)C[C@@H](Oc1cccc(F)c1Cl)[C@H]1CCNC1 [Example 10-27, (S)-3-[(R)-1-(2-Chloro-3-fluorophenoxy)-3-methylbutyl]pyrrolidine] | ≤ 10
CC(C)CC(Oc1cccc(C(F)(F)F)c1Cl)C1CCNC1 (centres unmarked) [Example 10-29, 3-[1-(2-Chloro-3-trifluoromethylphenoxy)-3-methylbutyl]pyrrolidine] | ≤ 10
CC(C)C[C@H](Oc1cccc(C(F)(F)F)c1Cl)[C@H]1CCNC1 [Example 10-30, (S)-3-[(S)-1-(2-Chloro-3-trifluoromethylphenoxy)-3-methylbutyl]pyrrolidine] | ≤ 10
Cc1c(Cl)cccc1O[C@H](CC(C)C)[C@H]1CCNC1 [Example 10-31, (S)-3-[(R)-1-(3-Chloro-2-methylphenoxy)-3-methylbutyl]pyrrolidine] | ≤ 10
CC(C)CC(Oc1cccc(Cl)c1C(F)(F)F)C1CCNC1 (centres unmarked) [Example 10-35, 3-[1-(3-Chloro-2-trifluoromethylphenoxy)-3-methylbutyl]pyrrolidine] | ≤ 10
CC(C)C[C@H](Oc1cccc(Cl)c1C(F)(F)F)[C@H]1CCNC1 [Example 10-36, (S)-3-[(S)-1-(3-Chloro-2-trifluoromethylphenoxy)-3-methylbutyl]pyrrolidine] | ≤ 10
CC(C)CC(Oc1ccc(Cl)cc1F)C1CCNC1 (centres unmarked) [Example 10-39, 3-[1-(4-Chloro-2-fluorophenoxy)-3-methylbutyl]pyrrolidine] | ≤ 10

molecular target: T1, hSERT; test: hSERT membrane radioligand binding assay (3H-citalopram), Assay 1; details: SERT pKi, hSERT HEK-293 membranes, 1.0 nM 3H-citalopram; values given as lower bounds

Ki [nM] | SMILES
≤ 10 | CC(C)C[C@H](Oc1ccc(Cl)cc1F)[C@H]1CCNC1 [Example 10-41, (S)-3-[(S)-1-(4-Chloro-2-fluorophenoxy)-3-methylbutyl]pyrrolidine]
≤ 10 | CC(C)C[C@H](Oc1ccc(Cl)cc1Cl)[C@H]1CCNC1 [Example 10-42, (S)-3-[(S)-1-(2,4-Dichlorophenoxy)-3-methylbutyl]pyrrolidine]
≤ 10 | CC(C)C[C@@H](Oc1ccc(Cl)cc1Cl)[C@H]1CCNC1 [Example 10-44, (S)-3-[(R)-1-(2,4-Dichlorophenoxy)-3-methylbutyl]pyrrolidine]
≤ 10 | Cc1cc(Cl)ccc1O[C@H](CC(C)C)[C@H]1CCNC1 [Example 10-45, (S)-3-[(R)-1-(4-Chloro-2-methylphenoxy)-3-methylbutyl]pyrrolidine]
≤ 10 | Cc1cc(Cl)ccc1O[C@@H](CC(C)C)[C@H]1CCNC1 [Example 10-47, (S)-3-[(S)-1-(4-Chloro-2-methylphenoxy)-3-methylbutyl]pyrrolidine]
≤ 10 | CC(C)CC(Oc1ccc(Cl)cc1C(F)(F)F)C1CCNC1 (centres unmarked) [Example 10-48, 3-[1-(4-Chloro-2-trifluoromethylphenoxy)-3-methylbutyl]pyrrolidine]

Continued, molecule first:

SMILES | Ki [nM]
CC(C)CC(Oc1cccc(C(F)(F)F)c1F)C1CCNC1 (centres unmarked) [Example 10-20, 3-[1-(2-Fluoro-3-trifluoromethylphenoxy)-3-methylbutyl]pyrrolidine] | ≤ 10
CC(C)CC(Oc1cccc(Cl)c1Cl)C1CCNC1 (centres unmarked) [Example 10-22, 3-[1-(2,3-Dichlorophenoxy)-3-methylbutyl]pyrrolidine] | ≤ 10
CC(C)C[C@@H](Oc1cccc(Cl)c1Cl)[C@H]1CCNC1 [Example 10-23, (S)-3-[(R)-1-(2,3-Dichlorophenoxy)-3-methylbutyl]pyrrolidine] | ≤ 10
CC(C)C[C@H](Oc1cccc(F)c1Cl)[C@H]1CCNC1 [Example 10-25, (S)-3-[(S)-1-(2-Chloro-3-fluorophenoxy)-3-methylbutyl]pyrrolidine] | ≤ 10
CC(C)C[C@@H](Oc1cccc(F)c1Cl)[C@H]1CCNC1 [Example 10-27, (S)-3-[(R)-1-(2-Chloro-3-fluorophenoxy)-3-methylbutyl]pyrrolidine] | ≤ 10
CC(C)CC(Oc1cccc(C(F)(F)F)c1Cl)C1CCNC1 (centres unmarked) [Example 10-29, 3-[1-(2-Chloro-3-trifluoromethylphenoxy)-3-methylbutyl]pyrrolidine] | ≤ 10
CC(C)C[C@H](Oc1cccc(C(F)(F)F)c1Cl)[C@H]1CCNC1 [Example 10-30, (S)-3-[(S)-1-(2-Chloro-3-trifluoromethylphenoxy)-3-methylbutyl]pyrrolidine] | ≤ 10
Cc1c(Cl)cccc1O[C@H](CC(C)C)[C@H]1CCNC1 [Example 10-31, (S)-3-[(R)-1-(3-Chloro-2-methylphenoxy)-3-methylbutyl]pyrrolidine] | ≤ 10
CC(C)CC(Oc1cccc(Cl)c1C(F)(F)F)C1CCNC1 (centres unmarked) [Example 10-35, 3-[1-(3-Chloro-2-trifluoromethylphenoxy)-3-methylbutyl]pyrrolidine] | ≤ 10
CC(C)C[C@H](Oc1cccc(Cl)c1C(F)(F)F)[C@H]1CCNC1 [Example 10-36, (S)-3-[(S)-1-(3-Chloro-2-trifluoromethylphenoxy)-3-methylbutyl]pyrrolidine] | ≤ 10
CC(C)CC(Oc1ccc(Cl)cc1F)C1CCNC1 (centres unmarked) [Example 10-39, 3-[1-(4-Chloro-2-fluorophenoxy)-3-methylbutyl]pyrrolidine] | ≤ 10
